From patent publication US20220062448A1 (priority 2015, published 2022)

Tested on: CD206+macrophages (MOs)
Assay: CD206 targeting assay in monocyte-derived CD206+ macrophages (uptake, killing, apoptosis)
Format: cell-based
Conditions: FIG. 17
Procedure: CD206 targeting assays were conducted using both in vitro monocyte-derived CD206+macrophages (MOs) and ex vivo fresh Kaposi Sarcoma (KS) tumor tissue (provided by the AIDS and Cancer Specimen Resource [ACSR]). Tilmanocept-Cy 3 with/without a chemo-therapeutic agent (CTA) attached (tilmanocept-Cy3-CTA or tilmanocept-Cy3) interactions with cellular and tumor targets were tracked by flow cytometry and immuno-histochemistry to evaluate Cy3-tilmanocept uptake and targeting capability for delivery of drug into KS tumor cells and TAMs.

COc1cccc2c1C(=O)c1c(O)c3c(c(O)c1C2=O)C[C@@](O)(C(=O)CO)C[C@@H]3O[C@H]1C[C@H](N)[C@H](O)[C@H](C)O1 [Docorubicin, doxorubicin]
toxicity to CD206 expressing macrophages (Annexin levels): no toxicity
effect on cells (apoptosis, cell loss) (compared with tilmanocept-Cy3-CTA): less effect
